Test results taken from US6355799B1, “Substituted benzene compounds, process for their preparation, and herbicidal and defoliant compositions containing them” (ISK Americas Incorporated, priority 1997, dated 2002).

Legend:
Format in all cases: in vivo
[1] = system: green foxtail (Setaria viridis, SETVI); assay: Pre-emerge test, greenhouse herbicide activity screening; conditions: Setaria viridis, pre-emergence, 336 h, phytotoxicity rating 0-100, 14 days after application, read-out: Pre-emerge Herbicidal Activity SETVI; for pest or weed control at 63 g/ha: 63 g ai/ha; for pest or weed control at 250 g/ha: 250 g ai/ha
Procedure, shortened: (§1)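 Visual ratings on a 0-100 scale (0 no damage, 100 all plants dead) were taken at 14 days after treatment. Rates of 15-1000 g ai/ha in acetone, 187 l/ha, were sprayed onto soil one day after planting (pre-emerge) or onto 2-3 leaf plants with 0.25% v/v surfactant (post-emerge).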

[2] = system: johnsongrass (Sorghum halepense, SORHA); assay: as above; conditions: Sorghum halepense, pre-emergence, 336 h, phytotoxicity rating 0-100, 14 days after application, read-out: Pre-emerge Herbicidal Activity SORHA; for pest or weed control at 63 g/ha: 63 g ai/ha; for pest or weed control at 250 g/ha: 250 g ai/ha
Procedure, shortened: as §1

[3] = system: large crabgrass (Digitaria sanguinalis, DIGSA); assay: as above; conditions: Digitaria sanguinalis, pre-emergence, 336 h, phytotoxicity rating 0-100, 14 days after application, read-out: Pre-emerge Herbicidal Activity DIGSA; for pest or weed control at 63 g/ha: 63 g ai/ha; for pest or weed control at 250 g/ha: 250 g ai/ha
Procedure, shortened: as §1

[4] = system: sicklepod (Cassia obtusifolia, CASOB); assay: as above; conditions: Senna obtusifolia, pre-emergence, 336 h, phytotoxicity rating 0-100, 14 days after application, read-out: Pre-emerge Herbicidal Activity CASOB; for pest or weed control at 63 g/ha: 63 g ai/ha; for pest or weed control at 250 g/ha: 250 g ai/ha
Procedure, shortened: as §1

[5] = system: velvetleaf (Abutilon theophrasti, ABUTH); assay: as above; conditions: Abutilon theophrasti, pre-emergence, 336 h, phytotoxicity rating 0-100, 14 days after application, read-out: Pre-emerge Herbicidal Activity ABUTH; for pest or weed control at 63 g/ha: 63 g ai/ha; for pest or weed control at 250 g/ha: 250 g ai/ha
Procedure, shortened: as §1

[6] = system: barnyardgrass (Echinochloa crus-galli, ECHCG); assay: Post-emerge test, greenhouse herbicide activity screening; conditions: post-emerge, 14 days after application, rating scale 0-100
Procedure, shortened: (§2)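 Each test used a mechanized track sprayer delivering 187 l/ha of acetone solution at 15–1000 g ai/ha. Post-emerge foliage at 2–3 leaves was treated with added 0.25% v/v non-ionic surfactant and bottom-watered only. Injury was assessed on day 14, where 100 means total kill.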

[7] = system: green foxtail (Setaria viridis, SETVI); assay: as above; conditions: post-emerge, 14 days after application, rating scale 0-100
Procedure, shortened: as §2

[8] = system: ivyleaf morningglory (Ipomoea hederacea, IPOHE); assay: as above; conditions: post-emerge, 14 days after application, rating scale 0-100
Procedure, shortened: as §2

[9] = system: johnsongrass (Sorghum halepense, SORHA); assay: as above; conditions: post-emerge, 14 days after application, rating scale 0-100
Procedure, shortened: as §2

[10] = system: lambsquarters (Chenopodium album, CHEAL); assay: as above; conditions: post-emerge, 14 days after application, rating scale 0-100
Procedure, shortened: as §2

[11] = system: large crabgrass (Digitaria sanguinalis, DIGSA); assay: as above; conditions: post-emerge, 14 days after application, rating scale 0-100
Procedure, shortened: as §2

[12] = system: redroot pigweed (Amaranthus retroflexus, AMARE); assay: as above; conditions: post-emerge, 14 days after application
Procedure, shortened: as §2

[13] = system: sicklepod (Cassia obtusifolia, CASOB); assay: as above; conditions: post-emerge, 14 days after application, rating scale 0-100
Procedure, shortened: as §2

[14] = system: velvetleaf (Abutilon theophrasti, ABUTH); assay: as above; conditions: post-emerge, 14 days after application, rating scale 0-100
Procedure, shortened: as §2

[15] = 63 g ai/ha, rating scale 0-100 (0 no damage, 100 complete death)
[16] = 250 g ai/ha, rating scale 0-100

Structure (SMILES) | pest or weed control at 63 g/ha [1] | pest or weed control at 250 g/ha [1] | pest or weed control at 63 g/ha [2] | pest or weed control at 250 g/ha [2] | pest or weed control at 63 g/ha [3] | pest or weed control at 250 g/ha [3] | pest or weed control at 63 g/ha [4] | pest or weed control at 250 g/ha [4] | pest or weed control at 63 g/ha [5] | pest or weed control at 250 g/ha [5] | phytotoxicity rating ECHCG ([6]; 63 g ai/ha) | phytotoxicity rating ECHCG ([6]; 250 g ai/ha) | phytotoxicity rating SETVI ([7]; 63 g ai/ha) | phytotoxicity rating SETVI ([7]; 250 g ai/ha) | phytotoxicity rating IPOHE ([8]; 63 g ai/ha) | phytotoxicity rating IPOHE ([8]; 250 g ai/ha) | phytotoxicity rating SORHA ([9]; 63 g ai/ha) | phytotoxicity rating SORHA ([9]; 250 g ai/ha) | phytotoxicity rating CHEAL ([10]; 63 g ai/ha) | phytotoxicity rating CHEAL ([10]; 250 g ai/ha) | further results
CNC(=O)N(C(=O)NC)c1c(OC)c(Cl)cc(F)c1-n1c(=O)cc(C(F)(F)F)n(C)c1=O [Compound 3-1, 3-[2-bis(methylaminocarbonyl)amino-4-chloro-6-fluoro-3-methoxyphenyl]-1-methyl-6-trifluoromethyl-2,4(1H, 3H)-pyrimidinedione] | 0% | 0% | 0% | 0% | 0% | 0% | 0% | 0% | 0% | 20% | 0 | 0 | 0 | 0 | 0 | 30 | 0 | 0 | 0 | 60 | phytotoxicity rating DIGSA ([11]; 63 g ai/ha): 0; phytotoxicity rating DIGSA ([11]; 250 g ai/ha): 0; phytotoxicity rating AMARE [12, 15]: 0; phytotoxicity rating AMARE [12, 16]: 60; phytotoxicity rating CASOB ([13]; 63 g ai/ha): 0; phytotoxicity rating CASOB ([13]; 250 g ai/ha): 0; phytotoxicity rating ABUTH ([14]; 63 g ai/ha): 0; phytotoxicity rating ABUTH ([14]; 250 g ai/ha): 0
COc1c(Cl)cc(F)c(-n2c(=O)cc(C(F)(F)F)n(C)c2=O)c1NC(N)=O [Compound 3-26, 3-(2-aminocarbonylamino-4-chloro-6-fluoro-3-methoxyphenyl)-1-methyl-6-trifluoromethyl-2,4(1H, 3H)-pyrimidinedione] | 0% | 85% | 0% | 50% | 0% | 80% | 40% | 90% | 75% | 100% | 0 | 0 | 0 | 0 | 60 | 90 | 0 | 0 | 50 | 60 | phytotoxicity rating DIGSA ([11]; 63 g ai/ha): 0; phytotoxicity rating DIGSA ([11]; 250 g ai/ha): 0; phytotoxicity rating AMARE [12, 15]: 50; phytotoxicity rating AMARE [12, 16]: 65; phytotoxicity rating CASOB ([13]; 63 g ai/ha): 20; phytotoxicity rating CASOB ([13]; 250 g ai/ha): 60; phytotoxicity rating ABUTH ([14]; 63 g ai/ha): 60; phytotoxicity rating ABUTH ([14]; 250 g ai/ha): 60
COC(=O)Nc1c(OC)c(Cl)cc(F)c1-n1c(=O)cc(C(F)(F)F)n(C)c1=O [Compound 4-1, 3-(4chloro-6-fluoro-3-methoxy-2-methoxycarbonylaminophenyl)-1-methyl-6-trifluoromethyl-2,4(1H, 3H)-pyrimidinedione] | 100% | 100% | 60% | 100% | 60% | 100% | 95% | 100% | 100% | 100% | 0 | 0 | 0 | 10 | 100 | 100 | 0 | 20 | 60 | 98 | phytotoxicity rating DIGSA ([11]; 63 g ai/ha): 0; phytotoxicity rating DIGSA ([11]; 250 g ai/ha): 0; phytotoxicity rating AMARE [12, 15]: 50; phytotoxicity rating AMARE [12, 16]: 95; phytotoxicity rating CASOB ([13]; 63 g ai/ha): 30; phytotoxicity rating CASOB ([13]; 250 g ai/ha): 50; phytotoxicity rating ABUTH ([14]; 63 g ai/ha): 100; phytotoxicity rating ABUTH ([14]; 250 g ai/ha): 100
